Results on 49 substances are retold here after patent publication US11840686B2, “Modulation of prekallikrein (PKK) expression” (Ionis Pharmaceuticals, Inc., priority 2013, dated 2023).

Strand notation (5' to 3'): a small letter for the sugar, then the base; units joined by * are phosphorothioate-linked, units joined directly phosphodiester-linked; [ ] holds rarer units or linkages, { } end groups; capitals alone tell only the bases. e = 2'-O-(2-methoxyethyl) (MOE); k = constrained ethyl (cEt); [5mC] = 5-methylcytosine; d = 2'-deoxy (DNA)

As usually defined, the % inhibition is how much of the control response was suppressed. Low values mean little suppression, high ones strong suppression.

The first series relates to human PKK mRNA. The series is described as follows: Antisense inhibition of human PKK mRNA in HepaRG cells, 1,000 nM, MOE/deoxy/cEt oligonucleotides (Example 3). It is filed as cell-based. Conditions: HepaRG cells, electroporation with 1,000 nM antisense oligonucleotide, approx. 24 hours, PKK mRNA by RT-PCR (RTS3454), relative to untreated control cells; Table 25 experiment. A digest of the protocol:
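Readout is percent PKK mRNA reduction against untreated controls, by real-time PCR (RTS3454) adjusted for total RNA via RIBOGREEN. Oligonucleotides, phosphorothioate gapmers of 16 nucleosides with cEt, MOE and deoxy sugars, were delivered at 1,000 nM by electroporation to 20,000 HepaRG cells/well for roughly 24 h.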
For the substance “548218 (eT*e[5mC]*k[5mC]*dT*dG*dT*dG*d[5mC]*dA*dT*dA*dG*dA*k[5mC]*k[5mC]*e[5mC]; antisense) [compound 548218]”, the “% inhibition” value stood at 59%. “548219 (eG*eA*kA*dA*dT*d[5mC]*d[5mC]*dT*dG*dT*dG*d[5mC]*dA*kT*kA*eG; antisense) [compound 548219]”: the “% inhibition” value is listed as 8%. Turning to “548221 (eA*e[5mC]*kT*d[5mC]*d[5mC]*dA*dG*d[5mC]*dA*dG*dA*dA*dA*kT*k[5mC]*e[5mC]; antisense) [compound 548221]”, the “% inhibition” value stood at 49%. “548222 (eA*eA*kT*d[5mC]*dA*dT*dG*d[5mC]*d[5mC]*dT*dT*dG*dT*kG*kG*eG; antisense) [compound 548222]”: the “% inhibition” value was found to be 32%. Still for that read-out and setting: with “548223 (eT*eA*kG*dA*d[5mC]*d[5mC]*d[5mC]*dA*dG*dA*dA*dT*d[5mC]*kA*kT*eG; antisense) [compound 548223]” the figure was 50%. The same measure, in the same setting: with “548224 (e[5mC]*e[5mC]*kA*dT*dA*dG*dA*d[5mC]*d[5mC]*d[5mC]*dA*dG*dA*kA*kT*e[5mC]; antisense) [compound 548224]” the figure was 20%.

In the case of “548225 (eA*eG*kT*d[5mC]*dA*d[5mC]*d[5mC]*dA*dT*dA*dG*dA*d[5mC]*k[5mC]*k[5mC]*eA; antisense) [compound 548225]”, the “% inhibition” value is reported as 48%. Turning to “548226 (eT*eA*kA*dG*dT*d[5mC]*dA*d[5mC]*d[5mC]*dA*dT*dA*dG*kA*k[5mC]*e[5mC]; antisense) [compound 548226]”, the “% inhibition” value was 39%. As for “548227 (eG*eT*kG*dG*d[5mC]*d[5mC]*d[5mC]*dT*d[5mC]*dT*dT*dA*dA*kG*kT*e[5mC]; antisense) [compound 548227]”, the “% inhibition” value was 0%.

The series is the same for the next values; noted with them: HepaRG cells, electroporation with 1,000 nM antisense oligonucleotide, approx. 24 hours, PKK mRNA by RT-PCR (RTS3454), relative to untreated control cells; Table 26 experiment.
With “548228 (eG*eT*kT*dG*dT*dG*dT*dG*dG*d[5mC]*d[5mC]*d[5mC]*dT*k[5mC]*kT*eT; antisense) [compound 548228]”, the “% inhibition” value amounted to 37%.

In the case of “548229 (e[5mC]*eA*kT*dT*dG*dT*dT*dG*dT*dG*dT*dG*dG*k[5mC]*k[5mC]*e[5mC]; antisense) [compound 548229]”, the “% inhibition” value was found to be 31%.

Regarding “548230 (eT*eA*k[5mC]*dT*d[5mC]*dA*dT*dT*dG*dT*dT*dG*dT*kG*kT*eG; antisense) [compound 548230]”, the “% inhibition” value is 10%.

Regarding “548231 (eA*eA*kT*dA*d[5mC]*dT*d[5mC]*dA*dT*dT*dG*dT*dT*kG*kT*eG; antisense) [compound 548231]”, the “% inhibition” value amounted to 11%. As for “548232 (eG*e[5mC]*k[5mC]*dA*dT*dA*d[5mC]*dA*dT*d[5mC]*dT*dG*dA*kG*kG*eA; antisense) [compound 548232]”, the “% inhibition” value is 3%. On to “548233 (eA*eT*kT*dG*dT*dA*dG*d[5mC]*d[5mC]*dA*dT*dA*d[5mC]*kA*kT*e[5mC]; antisense) [compound 548233]”, for which the “% inhibition” value is given as 38%. For the substance “548234 (eT*eT*kA*dT*dT*dG*dT*dA*dG*d[5mC]*d[5mC]*dA*dT*kA*k[5mC]*eA; antisense) [compound 548234]”, the “% inhibition” value was 17%. On to “548235 (eT*e[5mC]*kT*dA*dG*dA*dT*dG*dA*d[5mC]*d[5mC]*dT*dG*kA*kA*eG; antisense) [compound 548235]”, for which the “% inhibition” value is 0%. Regarding “548236 (eT*eA*k[5mC]*dA*dT*d[5mC]*dT*dA*dG*dA*dT*dG*dA*k[5mC]*k[5mC]*eT; antisense) [compound 548236]”, the “% inhibition” value came to 37%. Take “548237 (eG*eT*kA*dT*dA*d[5mC]*dA*dT*d[5mC]*dT*dA*dG*dA*kT*kG*eA; antisense) [compound 548237]”: the “% inhibition” value was 22%. The same measure, in the same setting: next, “548238 (eA*e[5mC]*kT*d[5mC]*dG*d[5mC]*d[5mC]*dT*dT*dT*dG*dT*dG*kA*k[5mC]*eT; antisense) [compound 548238]”: 31%. As to “548239 (eT*eA*k[5mC]*dT*d[5mC]*dG*d[5mC]*d[5mC]*dT*dT*dT*dG*dT*kG*kA*e[5mC]; antisense) [compound 548239]”, the “% inhibition” value was 18%. For the substance “548240 (eA*eT*kA*d[5mC]*dT*d[5mC]*dG*d[5mC]*d[5mC]*dT*dT*dT*dG*kT*kG*eA; antisense) [compound 548240]”, the “% inhibition” value stood at 3%. “548241 (e[5mC]*eA*kT*dA*d[5mC]*dT*d[5mC]*dG*d[5mC]*d[5mC]*dT*dT*dT*kG*kT*eG; antisense) [compound 548241]”: the “% inhibition” value came to 1%. The same measure, in the same setting: next, “548242 (eG*e[5mC]*kA*dT*dA*d[5mC]*dT*d[5mC]*dG*d[5mC]*d[5mC]*dT*dT*kT*kG*eT; antisense) [compound 548242]”: 25%; “548243 (eA*eT*kG*d[5mC]*dA*dT*dA*d[5mC]*dT*d[5mC]*dG*d[5mC]*d[5mC]*kT*kT*eT; antisense) [compound 548243]”: 0%.

As to “548244 (e[5mC]*eA*kT*dG*d[5mC]*dA*dT*dA*d[5mC]*dT*d[5mC]*dG*d[5mC]*k[5mC]*kT*eT; antisense) [compound 548244]”, the “% inhibition” value stood at 51%. Same read-out and setting: with “548245 (e[5mC]*e[5mC]*kA*dT*dG*d[5mC]*dA*dT*dA*d[5mC]*dT*d[5mC]*dG*k[5mC]*k[5mC]*eT; antisense) [compound 548245]” the figure was 31%; with “548246 (eT*eT*k[5mC]*d[5mC]*dA*dT*dG*d[5mC]*dA*dT*dA*d[5mC]*dT*k[5mC]*kG*e[5mC]; antisense) [compound 548246]”, 46%; with “548248 (antisense eT*eG*k[5mC]*dG*dA*dT*dT*dT*dT*d[5mC]*d[5mC]*dA*dT*kG*k[5mC]*eA) [compound 548248]”, 13%. Same read-out and setting: with “548249 (antisense eT*eG*kT*dG*dA*dT*dG*d[5mC]*dG*dA*dT*dT*dT*kT*k[5mC]*e[5mC]) [compound 548249]” the figure was 22%. For the substance “548250 (antisense e[5mC]*eT*kT*dT*dG*dT*dG*dA*dT*dG*d[5mC]*dG*dA*kT*kT*eT) [compound 548250]”, the “% inhibition” value worked out at 0%. Take “548251 (antisense eG*e[5mC]*k[5mC]*dT*dT*dT*dG*dT*dG*dA*dT*dG*d[5mC]*kG*kA*eT) [compound 548251]”: the “% inhibition” value is on record as 13%. Consider “548252 (antisense eA*e[5mC]*kT*d[5mC]*dG*d[5mC]*d[5mC]*dT*dT*dT*dG*dT*dG*kA*kT*eG) [compound 548252]”, for which the “% inhibition” value is reported as 33%. For “548253 (antisense eT*eA*k[5mC]*dT*d[5mC]*dG*d[5mC]*d[5mC]*dT*dT*dT*dG*dT*kG*kA*eT) [compound 548253]”, the “% inhibition” value was found to be 8%.

With “548254 (antisense e[5mC]*e[5mC]*k[5mC]*dA*dT*dG*d[5mC]*dA*dT*dA*d[5mC]*dT*d[5mC]*kG*k[5mC]*e[5mC]) [compound 548254]”, the “% inhibition” value was 39%.

As for “548255 (antisense e[5mC]*e[5mC]*k[5mC]*d[5mC]*dA*dT*dG*d[5mC]*dA*dT*dA*d[5mC]*dT*k[5mC]*kG*e[5mC]) [compound 548255]”, the “% inhibition” value came to 38%. Turning to “548256 (antisense eG*e[5mC]*kT*d[5mC]*d[5mC]*d[5mC]*d[5mC]*dA*dT*dG*d[5mC]*dA*dT*kA*k[5mC]*eT) [compound 548256]”, the “% inhibition” value is reported as 25%.

Turning to “548257 (antisense eA*eG*kT*dG*d[5mC]*dT*d[5mC]*d[5mC]*d[5mC]*d[5mC]*dA*dT*dG*k[5mC]*kA*eT) [compound 548257]”, the “% inhibition” value is listed as 2%.

“548258 (antisense e[5mC]*eA*kA*dG*dT*dG*d[5mC]*dT*d[5mC]*d[5mC]*d[5mC]*d[5mC]*dA*kT*kG*e[5mC]) [compound 548258]”: the “% inhibition” value is reported as 0%. For the substance “548259 (antisense eG*eT*kG*dA*dT*dG*dA*dA*dA*dG*dT*dA*d[5mC]*kA*kG*e[5mC]) [compound 548259]”, the “% inhibition” value came out at 45%. “548260 (antisense eA*eG*kG*dA*dG*dT*dT*dT*dG*dT*d[5mC]*dA*dG*kA*kA*e[5mC]) [compound 548260]”: the “% inhibition” value was determined as 28%. Same read-out and setting: with “548261 (antisense eT*eT*k[5mC]*dA*dG*dG*dG*dA*dG*dT*dG*dA*dT*kG*kT*e[5mC]) [compound 548261]” the figure was 36%; with “548262 (antisense e[5mC]*e[5mC]*kT*dA*dT*d[5mC]*d[5mC]*dG*dT*dG*dT*dT*d[5mC]*kA*kG*e[5mC]) [compound 548262]”, 73%. The same measure, in the same setting: with “548263 (antisense e[5mC]*eT*k[5mC]*dT*dA*d[5mC]*dA*dT*dA*d[5mC]*dT*d[5mC]*dA*kG*kG*eA) [compound 548263]” the figure was 62%; with “548264 (antisense e[5mC]*eA*kG*dT*d[5mC]*d[5mC]*dA*dA*dA*dA*dA*dT*d[5mC]*k[5mC]*k[5mC]*eT) [compound 548264]”, 60%; with “548266 (antisense eT*eT*kG*dG*d[5mC]*d[5mC]*dA*dA*d[5mC]*dT*d[5mC]*dT*dG*kT*kG*eG) [compound 548266]”, 44%. As to “548267 (antisense eG*eA*k[5mC]*d[5mC]*dT*d[5mC]*d[5mC]*dA*dG*dA*d[5mC]*dT*dA*k[5mC]*kT*eG) [compound 548267]”, the “% inhibition” value amounted to 34%.

As for “548268 (antisense eT*eG*kT*dG*dT*d[5mC]*dT*dA*dG*dG*dG*dA*dG*kT*kT*eG) [compound 548268]”, the “% inhibition” value turned out to be 52%. On to “548269 (antisense eA*eG*k[5mC]*dA*d[5mC]*dA*d[5mC]*dA*dA*dT*dT*dA*d[5mC]*kT*kG*eG) [compound 548269]”, for which the “% inhibition” value stood at 62%.
